Where two headings read alike, the source gives them in different places. Residues, ends and D or L forms follow the SMILES beside them.
Key:
[1] = tested on: surface expressed viral antigens in FIPV infected monocytes; experiment: Internalization inhibition assay of surface expressed viral antigens (antigen-antibody complexes); format: cell-based, feline; conditions: each inhibitor at its working concentration; for internalization of viral antigens: 30 min pre-incubation, 30 min with antibodies
feline monocytes [2] = experiment: Internalization assay of control ligands (beads, transferrin or albumin) in monocytes; format: cell-based; conditions: for internalization of a control ligand: control ligand not named
Procedure: To test the effectiveness of all reagents, a suitable control was used in each experiment. Monocytes seeded on glass coverslips were pre-incubated for 30 minutes at 37° C. with 5% CO2 in the presence of one of the inhibitors. After treatment, the cells were incubated with biotinylated transferrin (Sigma-Aldrich GmbH) or fluorescent 1 μm polystyrene microspheres, FluoSpheres (Molecular Probes-Invitrogen), in presence of the inhibitor. Then, cells were fixed with 1% formaldehyde and permeabilized with 0.1% Triton X-100. The biotinylated transferrin was visualized by incubating the cells with streptavidin-FITC for 1 hour at 37° C. and cells incubated with fluorescent beads were incubated with phalloidin-Texas Red (Molecular Probes-Invitrogen) for 1 hour at 37° C. to visualize the lamellipodia. The glass coverslips were mounted on microscope slides using glycerin-DABCO and analyzed by confocal microscopy. […] Fluorescent beads were considered internalized when they were found inside the cortical actin labeling.

feline monocytes [3] = experiment: as above; format: cell-based; conditions: 50 μg/ml genistein
FIPV 1146 (CrFK cells) = experiment: Plaque reduction assay, entry of FIPV 1146 in CrFK cells; format: cell-based, feline infectious peritonitis virus
FECV 1863 (CrFK cells) = experiment: Plaque reduction assay, entry of FECV 1863 in CrFK cells; format: cell-based, feline enteric coronavirus
FIPV Black (fcwf cells) = experiment: Plaque reduction assay, entry of FIPV Black in fcwf cells; format: cell-based, feline infectious peritonitis virus; conditions: FIPV strain Black
[4] = tested on: Porcine respiratory coronavirus (PRCV) in ST cells; experiment: Plaque reduction assay, entry of porcine respiratory coronavirus in ST cells; format: cell-based
PRRSV in MARC cells = experiment: Plaque reduction assay, entry of PRRSV in MARC cells; format: cell-based, Porcine reproductive and respiratory syndrome virus
[5] = tested on: PRRSV in alveolar macrophage; format: cell-based, Porcine reproductive and respiratory syndrome virus
FeHV (CrFK cells) = experiment: Plaque reduction assay, entry of feline herpesvirus in CrFK cells; format: cell-based
HSV1 (VERO cells) = experiment: Plaque reduction assay, entry of HSV1 in VERO cells; format: cell-based, human herpes simplex virus 1
EHV (EEL cells) = experiment: Plaque reduction assay, entry of equine herpesvirus in EEL cells; format: cell-based
[6] = tested on: swine influenzavirus in MDCK cells; format: cell-based
hepatitis C virus (HCV) = experiment: Single infected cell reduction assay, entry of HCV in Huh7.5 hepatoma cells; format: cell-based, human hepatitis C virus; conditions: 25 μM; Huh7.5 cells
Procedure: The single infected cell reduction assay was used to determine the antiviral potency of to ML-7 on the entry of hepatitis C virus (HCV). • 1. Day 1
Huh7.5 hepatoma cells were seeded in a 96-well plate at 10000 cells/well in 100 μl medium containing 0, 2.5 or 25 μM of ML-7. • 2. Day 2
Virus was diluted in medium containing the different concentrations of the inhibitor to reach an end concentration of 2,22.10^6 IU/ml. 100 μl of this mixture was added to the wells and the plate was further incubated at 37° C. • 3. Day 6
The cells were fixed and stained for NS5A (a HCV protein). Then the amount of HCV-positive clusters per well was counted. A cluster is defined as a group of positive cells that is separated from another cluster by at least 1 non-infected cell.

[7] = tested on: PrV infected porcine monocytes; experiment: Antibody-induced internalization of PrV viral proteins in porcine monocytes; format: cell-based; conditions: 10 μM
HIV-1 NL4.3-eGFP = format: cell-based, Human Immunodeficiency Virus 1
Procedure: In this experiment the Human Immunodeficiency Virus 1 (HIV-1) strain HIV-1 NL4.3-eGFP which is a lab strain with an eGFP reporter, was used to infect the human T-cell lymphoblatic lymphoma cell line SupT1. The percentage of eGFP positive cells measured at different time point was used as endpoint read out SupT1. ML-7 inhibitor was used at three different concentration: 0 (DMSO), 2,5 and 25 μM.
SupT1 cells were at a concentration of 20000 cell/well in 200 μl of iMDM medium supplemented with 10% FCS, 1% penicillin/streptomycin and 1% L-glutamine, and were centrifuged at 300 g for 5 min at 4° C. Supernatant was removed and the cells were treated for 30 min with 100 μl of 0 (DMSO at 1/200 dilution in culture medium), 5 and 50 μM ML-7 inhibitor prepared in culture medium at 1/2000 and 1/200 dilution respectively. Meanwhile, HIV-1 NL4.3-eGFP virus was diluted in 10 fold dilution series in a separate plate (starting from 1/5 of stock, put on first well). 100 μl of each virus at every dilution was transferred to the corresponding well of the culture plate treated with the inhibitor. Four hours later approximately 100 μl was transferred to an
Cells were centrifuged at 300 g for 5 min at 4° C. and approximately 100 μl was collected then stored at −80° C. for p24 measurement. Then 100 μl of cells infected with HIV1-NL4.3-eGFP virus was collected for the determination of the percentage of eGFP positive cells by FACS. Cells were resuspended in 200 μl of medium containing the adequate ML-7 inhibitor concentration. • 3. Day 7
Cells were treated in the same way as in day 3
During the course of the experiment cells were monitored carefully by microscopy to check for signs of infection such as: • eGFP expression • Syncytia formation • Cell death Results

protein kinase A = conditions: 50 and 100 μM; cited from earlier work
protein kinase C = conditions: 50 and 100 μM; cited from earlier work
[8] = inhibitor at working concentration
[9] = feline coronaviruses, FIG. 4, 50 and 100 μM
[10] = feline coronaviruses, FIG. 4, higher concentrations
[11] = Day 3, 2.5 μM, virus dilution 10X
[12] = Day 3, 2.5 μM, virus dilution 100X
[13] = Day 3, 2.5 μM, virus dilution 1000X
[14] = Day 3, 25 μM, virus dilution 10X
[15] = Day 3, 25 μM, virus dilution 100X
[16] = Day 3, 25 μM, virus dilution 1000X
[17] = Day 7, 2.5 μM, virus dilution 10X
[18] = Day 7, 2.5 μM, virus dilution 100X
[19] = Day 7, 2.5 μM, virus dilution 1000X, at or below detection limit
[20] = Day 7, 25 μM, virus dilution 10X
[21] = Day 7, 25 μM, virus dilution 100X
[22] = Day 7, 25 μM, virus dilution 1000X, at or below detection limit

## COC(=O)[C@@]1(O)C[C@H]2O[C@]1(C)n1c3ccccc3c3c4c(c5c6ccccc6n2c5c31)C(=O)NC4 [K252a, K-252a]
[1]
  internalization of viral antigens (in words): inhibited
Feline monocytes [2]; 150 nM K-252a
  internalization of the control ligand (beads), in words: inhibited

## O=S(=O)(NCCNC/C=C/c1ccc(Br)cc1)c1cccc2cnccc12 [H-89]
[1]
  internalization of viral antigens (in words): unaffected
Feline monocytes [2]; [8]
  internalization of a control ligand: 33±29%

## COc1ccc(S(=O)(=O)N(CCO)c2ccccc2CN(C)C/C=C/c2ccc(Cl)cc2)cc1 [KN-93]
[1]
  internalization of viral antigens (in words): unaffected
Feline monocytes [2]; [8]
  internalization of a control ligand: 23±16%

## CN(N=O)c1cc(O)ccc1O [dephostatin]
[1]
  internalization of viral antigens: 96±23 % of untreated control
Feline monocytes [2]; [8]
  internalization of the control ligand beads: 2±3 % of untreated control

## CN(C)CCCn1cc(C2=C(c3c[nH]c4ccccc34)C(=O)NC2=O)c2ccccc21 [bisindolylmaleimide I]
[1]
  internalization of viral antigens (in words): unaffected
Feline monocytes [2]; [8]
  internalization of a control ligand: 25±13%

## CC(NC(=O)C(CCCN=C(N)N)NC(=O)C(CCCCN)NC(=O)C(N)CCCN=C(N)N)C(=O)NC(CCCN=C(N)N)C(=O)NC(CCCCN)C(=O)NC(CCC(=O)O)C(=O)O (centres unmarked) [PKG-inhibitor] (H-RKRARKE-OH; configuration not given here)
[1]
  internalization of viral antigens (in words): unaffected
Feline monocytes [2]; [8]
  internalization of a control ligand: 14±7%

## CN[C@@H]1C[C@H]2O[C@@](C)([C@@H]1OC)n1c3ccccc3c3c4c(c5c6ccccc6n2c5c31)C(=O)NC4 [staurosporine]
[1]
  internalization of viral antigens: 21±2 % of untreated control
Feline monocytes [2]; [8]
  internalization of the control ligand beads: 23±4 % of untreated control

## [F-].[Na+] [sodium fluoride]
[1]
  internalization of viral antigens (in words): no reduction
Feline monocytes [2]; [8]
  internalization of the control ligand transferrin: 46±6 % of the untreated control

## O=c1c(-c2ccc(O)cc2)coc2cc(O)cc(O)c12 [genistein]
[1]
  internalization of viral antigens: 81±4 % of untreated control
Feline monocytes [3]
  internalization of the control ligand albumin: 3±5 % of the untreated control

## O=S(=O)(c1cccc2c(I)cccc12)N1CCCNCC1 [ML-7]
[1]
  internalization of viral antigens: 12±21 % of untreated control
Feline monocytes [2]; [8]
  internalization of the control ligand beads: 11±5 % of untreated control
FIPV 1146 (CrFK cells); FIPV on CrFK cells, 3,13 μM
  reduction of entry, % of the control: 88 % of the control
FIPV 1146 (CrFK cells); [9]
  inhibitory effect on entry at the highest concentrations: inhibitory effect increased rapidly
FIPV 1146 (CrFK cells); [10]
  inhibitory effect on entry at higher concentrations: inhibitory effect seemed to be lost again
FECV 1863 (CrFK cells); FECV on CrFK cells, 1,56 μM
  reduction of entry, % of the control: 73%
FECV 1863 (CrFK cells); [9]
  inhibitory effect on entry at the highest concentrations: inhibitory effect increased rapidly
FECV 1863 (CrFK cells); [10]
  inhibitory effect on entry at higher concentrations: inhibitory effect seemed to be lost again
FIPV Black (fcwf cells)
  effect on the entry process: little effect
[4]; 50 μM
  number of plaques, % of the untreated control: about 40 % of the untreated control
[4]; 1,56 μM
  entry (plaque formation), % of the untreated control: 68 % of the untreated control
[4]; higher concentrations (up to 6 μM)
  inhibitory effect at higher concentrations: inhibitory effect is lost again
PRRSV in MARC cells
  effect on entry: activating effect instead of an inhibiting effect
[5]; 0,78 μM
  number of plaques, % of the control: 68 % of the control
[5]; higher concentrations
  further reduction at the higher concentrations: no further reduction
FeHV (CrFK cells); 100 μM
  additional effect at high concentration: additional inhibitory effect
FeHV (CrFK cells); 1,56 μM
  plaques, % of the untreated control: 79 % of the untreated control
HSV1 (VERO cells); 1,56 μM
  plaques, % of the untreated control: 81 % of the untreated control
HSV1 (VERO cells); 25 and 100 μM
  additional effect at high concentration: additional effect
EHV (EEL cells); 100 μM
  additional effect at high concentration: additional inhibitory effect
EHV (EEL cells); 1,56 μM
  plaques, % of the untreated control: 86 % of the untreated control
[6]; 3,13 μM
  number of plaques, % of the control: 76 % of the control
[6]; higher concentrations
  further reduction at the higher concentrations: no further reduction
Hepatitis C virus (HCV)
  amount of infected clusters, % of the untreated control: 31 % of the untreated control
[7]
  antibody-induced internalization of PrV viral proteins: can be inhibited
HIV-1 NL4.3-eGFP; 25 μM
  protection from virus mediated cell death: protected
HIV-1 NL4.3-eGFP; [11]
  Percentage of eGFP cells: 2.98%
  eGFP cells relative to 0 μM ML-7 (100%): (80%)
HIV-1 NL4.3-eGFP; [12]
  Percentage of eGFP cells: 0.18%
  eGFP cells relative to 0 μM ML-7 (100%): (46%)
HIV-1 NL4.3-eGFP; [13]
  Percentage of eGFP cells: 0.04%
  eGFP cells relative to 0 μM ML-7 (100%): (36%)
HIV-1 NL4.3-eGFP; [14]
  Percentage of eGFP cells: 1.52%
  eGFP cells relative to 0 μM ML-7 (100%): (41%)
HIV-1 NL4.3-eGFP; [15]
  Percentage of eGFP cells: 0.19%
  eGFP cells relative to 0 μM ML-7 (100%): (49%)
HIV-1 NL4.3-eGFP; [16]
  Percentage of eGFP cells: 0.06%
  eGFP cells relative to 0 μM ML-7 (100%): (54%)
HIV-1 NL4.3-eGFP; [17]
  Percentage of eGFP cells: 35.8%
  eGFP cells relative to 0 μM ML-7 (100%): (92%)
HIV-1 NL4.3-eGFP; [18]
  Percentage of eGFP cells: 18.64%
  eGFP cells relative to 0 μM ML-7 (100%): (44%)
HIV-1 NL4.3-eGFP; [19]
  Percentage of eGFP cells: 0.95%
  eGFP cells relative to 0 μM ML-7 (100%): (3160%)°
HIV-1 NL4.3-eGFP; [20]
  Percentage of eGFP cells: 1.13%
  eGFP cells relative to 0 μM ML-7 (100%): (3%)
HIV-1 NL4.3-eGFP; [21]
  Percentage of eGFP cells: 0.14%
  eGFP cells relative to 0 μM ML-7 (100%): (0.3%)
HIV-1 NL4.3-eGFP; [22]
  Percentage of eGFP cells: 0.06%
  eGFP cells relative to 0 μM ML-7 (100%): (200%)
HIV-1 NL4.3-eGFP; SupT1 cells
  inhibition of HIV-1 NL4.3-eGFP infection: strong inhibition
  toxic effect on cells: No toxic effect
HIV-1 NL4.3-eGFP; high concentration, data not shown
  virus induced syncytia: inhibited completely
HIV-1 NL4.3-eGFP; intermediate inhibitor concentration
  protection from virus mediated cell death: mild
Protein kinase A
  block of protein kinase A: can also block
Protein kinase C
  block of protein kinase C: can also block

Source: US8293464B2, “Methods for reducing the internalization of viruses and identification of compounds effective thereof” (Universiteit Gent, priority 2008, dated 2012)
